This is an account of results in patent US8980911B2, “Heterocyclic compounds as protein kinase inhibitors” (Daiichi Sankyo Company, Limited, priority 2011, dated 2015).

Molecules are shown by their SMILES.

Common to all, as to type: biochemical
In assay [1] the target is T1, JAK1 (Homo sapiens, UniProt P23458).
T1 construct: JAK1 (aa 850-1154) and TYK2 (aa 871-1187) are expressed with an N-terminally fused GST-tag; GST (N); purchased Carna Bioscience, Inc; host or cells: baculovirus expression system
Description: In vitro enzyme assay (cell-free HTRF kinase assay), JAK1. The conditions noted are these: catalytic domain aa 850-1154, GST-tag; ATP 60 μM, SRCtide 400 nM, reaction 120 min. Summed up:
(§1)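 Catalytic-domain human kinases (baculovirus-expressed; JAK1 GST-tagged aa 850-1154, JAK2/JAK3 His-tagged) reacted with biotin-SRCtide and ATP in HEPES pH 7.5, MgCl2, DTT buffer, 1% DMSO, at room temperature. EDTA stop (10 mM final), then ULight-streptavidin/Eu-anti-phosphotyrosine overnight at 4 °C; HTRF 665/615 ratio gave IC50.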
For orientation: In TR-FRET formats the signal depends on donor and acceptor labels being close together.

The target in assay [2] is T2, JAK2 (Homo sapiens, UniProt O60674).
T2 construct: All enzymes only contain the catalytic domain; His (N); purchased Carna Bioscience, Inc; host or cells: baculovirus expression system
The assay can be described thus: In vitro enzyme assay (cell-free HTRF kinase assay), JAK2. The following applies: catalytic domain, His-tag; ATP 10 μM, SRCtide 25 nM, reaction 30 min. The essentials:
as §1

Assay [3] has as its target T3, JAK3 (Homo sapiens, UniProt P52333).
T3 construct: All enzymes only contain the catalytic domain; His (N); purchased Carna Bioscience, Inc; host or cells: baculovirus expression system
The assay can be described thus: In vitro enzyme assay (cell-free HTRF kinase assay), JAK3. The conditions noted are these: catalytic domain, His-tag; ATP 3 μM, SRCtide 100 nM, reaction 30 min. Summed up: as §1

T3 sequence (P52333 822-1111 limits assumed): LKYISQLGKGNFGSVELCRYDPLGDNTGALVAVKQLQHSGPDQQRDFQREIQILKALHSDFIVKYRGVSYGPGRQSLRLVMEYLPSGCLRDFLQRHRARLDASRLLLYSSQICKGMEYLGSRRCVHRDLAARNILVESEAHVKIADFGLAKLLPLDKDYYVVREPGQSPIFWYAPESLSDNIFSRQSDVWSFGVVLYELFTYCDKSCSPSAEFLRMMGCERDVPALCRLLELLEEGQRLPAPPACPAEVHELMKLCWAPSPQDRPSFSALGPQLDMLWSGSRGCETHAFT
T2 sequence (O60674 849-1124 limits assumed): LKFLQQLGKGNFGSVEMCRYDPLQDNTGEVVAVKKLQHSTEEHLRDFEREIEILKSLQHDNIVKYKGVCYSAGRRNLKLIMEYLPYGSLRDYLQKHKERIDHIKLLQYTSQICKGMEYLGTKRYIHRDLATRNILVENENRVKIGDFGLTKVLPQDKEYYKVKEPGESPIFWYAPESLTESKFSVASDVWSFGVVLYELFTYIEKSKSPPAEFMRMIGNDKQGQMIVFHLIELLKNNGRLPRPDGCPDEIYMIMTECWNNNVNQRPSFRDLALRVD
T1 sequence (P23458 850-1154): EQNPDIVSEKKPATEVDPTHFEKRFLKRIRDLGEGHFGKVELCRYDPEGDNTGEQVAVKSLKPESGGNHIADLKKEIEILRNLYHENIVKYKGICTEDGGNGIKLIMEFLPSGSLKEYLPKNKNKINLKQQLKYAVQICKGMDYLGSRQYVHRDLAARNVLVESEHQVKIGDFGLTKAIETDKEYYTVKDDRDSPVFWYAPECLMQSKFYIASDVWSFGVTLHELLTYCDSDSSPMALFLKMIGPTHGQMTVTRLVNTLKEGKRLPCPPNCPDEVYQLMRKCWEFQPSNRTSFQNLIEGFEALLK

Broadly, the IC50 is the concentration that gives 50% inhibition. High values mean weaker potency in that assay, low ones greater potency in that assay. As for `O=C(NCCF)c1cc(Cl)c(C(=O)n2ccc3c(NC(=O)C4CC4)nccc32)c(Cl)c1` [Compound No. 154, 3,5-Dichloro-4-({4-[(cyclopropylcarbonyl)amino]-1H-pyrrolo[3,2-c]pyridin-1-yl}carbonyl)-N-(2-fluoroethyl)benzamide], the IC50 in assay [1] is under 1000 nM; in assay [2], under 500 nM; in assay [3], under 500 nM.
For the compound `O=C(NCC(O)CO)c1cc(Cl)c(C(=O)c2c[nH]c3c(NC(=O)C4CC4)nccc23)c(Cl)c1` (stereo not drawn) [Compound No. 32, 3,5-Dichloro-4-({7-[(cyclopropylcarbonyl)amino]-1H-pyrrolo[2,3-c]pyridin-3-yl}carbonyl)-N-(2,3-dihydroxypropyl)benzamide], the IC50 in assay [1] is under 500 nM; in assay [2], under 500 nM; in assay [3] it was under 50 nM.
Turning to `CC(=O)Nc1nccc2c(C(=O)c3c(Cl)cc(C(=O)NCCN4CCCCC4)cc3Cl)c[nH]c12` [Compound No. 42, 4-{[7-(Acetylamino)-1H-pyrrolo[2,3-c]pyridin-3-yl]carbonyl}-3,5-dichloro-N-[2-(piperidin-1-yl)ethyl]benzamide], the IC50 in assay [1], in assay [2] and in assay [3] was under 1000 nM in each case.
For `CCNC(=O)c1cc(Cl)c(C(=O)c2c[nH]c3c(NC(=O)C4CC4)nccc23)c(Cl)c1` [Compound No. 13, 3,5-Dichloro-4-({7-[(cyclopropylcarbonyl)amino]-1H-pyrrolo[2,3-c]pyridin-3-yl}carbonyl)-N-ethylbenzamide], the results for the concentration for half-maximal inhibition (IC50) in assay [1], in assay [2] and in assay [3] were under 1000 nM, under 500 nM and under 500 nM, respectively.
Consider `CNCc1cc(Cl)c(C(=O)n2ccc3c(NC(=O)C4CC4)nccc32)c(Cl)c1` [Compound No. 163, N-(1-{2,6-Dichloro-4-[(methylamino)methyl]benzoyl}-1H-pyrrolo[3,2-c]pyridin-4-yl)cyclopropanecarboxamide], for which the half-inhibitory concentration (IC50) was under 500 nM in assay [1], under 500 nM in assay [2] and under 100 nM in assay [3].
Take `Cc1noc(C)c1-c1cc(Cl)c(C(=O)c2c[nH]c3c(NC(=O)C4CC4)nccc23)c(Cl)c1` [Compound No. 23, N-{3-[2,6-Dichloro-4-(3,5-dimethyl-1,2-oxazol-4-yl)benzoyl]-1H-pyrrolo[2,3-c]pyridin-7-yl}cyclopropanecarboxamide]: the concentration for half-maximal inhibition (IC50) in assay [1] is under 1000 nM; in assay [2], under 500 nM; in assay [3] it was under 500 nM.
In the case of `CCOCCCNC(=O)c1cc(Cl)c(C(=O)c2c[nH]c3c(NC(=O)C4CC4)nccc23)c(Cl)c1` [Compound No. 56, 3,5-Dichloro-4-({7-[(cyclopropylcarbonyl)amino]-1H-pyrrolo[2,3-c]pyridin-3-yl}carbonyl)-N-(3-ethoxypropyl)benzamide], the IC50 in assay [1], in assay [2] and in assay [3] was under 500 nM throughout.
As to `O=C(c1c(Cl)cc(-c2cncnc2)cc1Cl)c1c[nH]c2c(NC(=O)C3CC3)nccc12` [Compound No. 47, N-{3-[2,6-Dichloro-4-(pyrimidin-5-yl)benzoyl]-1H-pyrrolo[2,3-c]pyridin-7-yl}cyclopropanecarboxamide], the values for the 50% inhibitory concentration (IC50) in assay [1], in assay [2] and in assay [3] were under 1000 nM, under 100 nM and under 100 nM, respectively.
For the compound `O=C(Nc1nccc2c1ccn2C(=O)c1c(Cl)cc(CO)cc1Cl)C1CC1` [Compound No. 96, N-{1-[2,6-Dichloro-4-(hydroxymethyl)benzoyl]-1H-pyrrolo[3,2-c]pyridin-4-yl}cyclopropanecarboxamide], the IC50 was under 1000 nM in assay [1], under 500 nM in assay [2] and under 500 nM in assay [3].
Regarding `O=C(NCCOCCO)c1cc(Cl)c(C(=O)c2c[nH]c3c(NC(=O)C4CC4)nccc23)c(Cl)c1` [Compound No. 29, 3,5-Dichloro-4-({7-[(cyclopropylcarbonyl)amino]-1H-pyrrolo[2,3-c]pyridin-3-yl}carbonyl)-N-[2-(2-hydroxyethoxy)ethyl]benzamide], the half-maximal inhibitory concentration (IC50) in assay [1] is under 1000 nM; in assay [2] it was under 1000 nM; in assay [3], under 500 nM.
Take `O=C(NCCN1CCCC1)c1cc(Cl)c(C(=O)n2ccc3c(NC(=O)C4CC4)nccc32)c(Cl)c1` [Compound No. 148, 3,5-Dichloro-4-({4-[(cyclopropylcarbonyl)amino]-1H-pyrrolo[3,2-c]pyridin-1-yl}carbonyl)-N-[2-(pyrrolidin-1-yl)ethyl]benzamide]: the half-inhibitory concentration (IC50) in assay [1] was under 500 nM; in assay [2], under 500 nM; in assay [3] it was under 100 nM.
For `CCNC(=O)Nc1cc(Cl)c(C(=O)n2ccc3c(NC(=O)C4CC4)nccc32)c(Cl)c1` [Compound No. 103, N-(1-{2,6-Dichloro-4-[(ethylcarbamoyl)amino]benzoyl}-1H-pyrrolo[3,2-c]pyridin-4-yl)cyclopropanecarboxamide], the results for the IC50 in assay [1], in assay [2] and in assay [3] were under 1000 nM, under 500 nM and under 500 nM, respectively.
`N#Cc1cc(Cl)c(C(=O)n2ccc3c(NC(=O)C4CC4)nccc32)c(Cl)c1` [Compound No. 86, N-[1-(2,6-Dichloro-4-cyanobenzoyl)-1H-pyrrolo[3,2-c]pyridin-4-yl]cyclopropanecarboxamide]: the results for the 50% inhibitory concentration (IC50) in assay [1], in assay [2] and in assay [3] were under 1000 nM, under 500 nM and under 500 nM, respectively.
Turning to `O=C(NC1CC1)c1cc(Cl)c(C(=O)c2c[nH]c3c(NC(=O)C4CC4)nccc23)c(Cl)c1` [Compound No. 54, 3,5-Dichloro-N-cyclopropyl-4-({7-[(cyclopropylcarbonyl)amino]-1H-pyrrolo[2,3-c]pyridin-3-yl}carbonyl)benzamide], the IC50 in assay [1], in assay [2] and in assay [3] was under 500 nM each time.
With `CN(C)CCNC(=O)c1cc(Cl)c(C(=O)n2ccc3c(NC(=O)C4CC4)nccc32)c(Cl)c1` [Compound No. 122, 3,5-Dichloro-4-({4-[(cyclopropylcarbonyl)amino]-1H-pyrrolo[3,2-c]pyridin-1-yl}carbonyl)-N-[2-(dimethylamino)ethyl]benzamide], the IC50 was under 1000 nM in assay [1], under 500 nM in assay [2] and under 100 nM in assay [3].
The matching figures for `Nc1cc(Cl)c(C(=O)c2c[nH]c3c(NC(=O)C4CC4)nccc23)c(Cl)c1` [Compound No. 26, N-[3-(4-Amino-2,6-dichlorobenzoyl)-1H-pyrrolo[2,3-c]pyridin-7-yl]cyclopropanecarboxamide]: under 500 nM, under 500 nM and under 100 nM.
In the same order, the values of `O=C(NCCc1cccnc1)c1cc(Cl)c(C(=O)n2ccc3c(NC(=O)C4CC4)nccc32)c(Cl)c1` [Compound No. 169, 3,5-Dichloro-4-({4-[(cyclopropylcarbonyl)amino]-1H-pyrrolo[3,2-c]pyridin-1-yl}carbonyl)-N-[2-(pyridin-3-yl)ethyl]benzamide] are under 1000 nM, under 500 nM and under 1000 nM.
In the same order, the values of `O=C(NCC(O)CO)c1cc(Cl)c(C(=O)n2ccc3c(NC(=O)C4CC4)nccc32)c(Cl)c1` (stereo not drawn) [Compound No. 143, 3,5-Dichloro-4-({4-[(cyclopropylcarbonyl)amino]-1H-pyrrolo[3,2-c]pyridin-1-yl}carbonyl)-N-(2,3-dihydroxypropyl)benzamide] are under 1000 nM, under 500 nM and under 50 nM.
